# Test results published in paper PMC3646166, “Comparison of Aqueous and 1-Octanol Solubility as well as Liquid–Liquid Distribution of Acyclovir Derivatives and Their Complexes with Hydroxypropyl-β-Cyclodextrin” (Journal of Solution Chemistry, 2013).
# Where two headings read alike, the source gives them in different places.
# Tests used:
# Type in all cases: physicochemical
# [1] = Solubility in water or 1-octanol (saturated solutions, UV-Vis); conditions: for solubility: thermodynamic from solid, water
# Description: The sample of substance examined (10 mg or 80 mg for 6-Me-TACV) was placed in a glass ampoule and double-distilled, deionized water (Millipore, Elix 5 purifier), or pure anhydrous 1-octanol (Sigma 99 %) was added. To attain thermodynamic equilibrium, the solute and the solvent were mixed continuously for a minimum of 4 days at a speed of 25 rpm. After the experiment was completed, the sample was centrifuged at 40,000 rpm for 40 min at 25 ± 0.1 °C, the supernatant liquid was collected, diluted, and its concentration determined with a UV–Vis (Varian Carry IE) spectrophotometer. The experiments were repeated at least three times for each solubility.
# [2] = Extraction experiments, 1-octanol-water partition coefficient; conditions: 25 °C, read-out: Partition coefficient 1-octanol–water, P oc/w (converted)
# Description: The equipment described above was also used for the determination of the 1-octanol-water partition coefficients. […] The partition coefficient was evaluated as:1 Poc/w=Coc/Cw where C oc and C w are the molar concentrations of the solute in the 1-octanol and water phases, respectively. The correctness of the P oc/w value of each compound was verified by checking the mass balance of the starting amount of the substance and the total amount of the substance partitioned between the two phases.
# [3] = Solubility in buffered cyclodextrin solutions (excess method of Higuchi and Connors); set-up: Stability constant K s of HP-β-CD complex: unit not given here
# Description: Solubilities of the studied compounds was ensured according to the excess method of Higuchi and Connors. […] An excess amount of compounds 4-9 and 11-12 was added to 1.5 mL of aqueous phosphate buffer (concentration of buffer was equal 0.067 mol·dm^-3) solutions, (pH = 5.5 or 7.0) containing various concentration of HP-β-CD. The cyclodextrin concentration changed in the range of 10^-3 to 2 × 10^-2 mol·dm^-3. The suspensions were shaken in screw-capped plastic vials in a water bath thermostat with the volume of 60 dm^3 (home made apparatus by IChF PAN) at 25 and 37 °C. After 7 days equilibrium was reached and then the suspensions were centrifuged and the absorbance of the studied compounds was measured by UV-Vis spectrophotometry using a Shimadzu UV 2401 PC Spectrometer equipped with a thermostatically controlled cell compartment. During the measurement of absorbance, a buffered-solution of HP-β-CD, of the same concentration as in the studied solution, was always put as the reference. The average values of at least three independent determinations of the absorbance were used for calculation of the concentrations of the particular acyclovir derivatives. […] The main reason for the low solubility of tricyclic acyclovir derivatives with aromatic groups in water is the high hydrophobicity of these substituents. Use of cyclodextrins, which can include aromatic groups into their cavity, may enhance the aqueous solubility of such compounds. For this purpose we used several cyclodextrins and hydroxypropyl-β-cyclodextrin was chosen as being more efficient for complexating the tricyclic acyclovir derivatives. The investigations were performed, for chosen compounds, in various cyclodextrin HP-β-CD, buffered solutions (pH = 5.5 and 7.0) at 25 and 37 °C. […] Values of the correlation parameters a and b for tricyclic acyclovir derivatives complexed by cyclodextrin are presented in Table 3. […] The stability constants of the inclusion complexes between HP-β-CD and acyclovir derivatives have been calculated according to the Higuchi-Connors method using:3 K=b/C0(1-b) where C 0 is the solubility of the sample in solutions without cyclodextrin, obtained by determination of saturated solution concentration of acyclovir derivative solutions. […] These two values can differ, but in our study are very close to each other.
# [4] = 25 °C (Table 1), read-out: Solubility in water, C w
# [5] = water saturated with 1-octanol, 25 °C, read-out: Solubility in water saturated with 1-octanol, C woc
# [6] = 35 °C, read-out: Aqueous solubility, C w
# [7] = 45 °C, read-out: Aqueous solubility, C w
# [8] = buffered HP-β-CD solutions, pH = 5.5, 25 °C
# [9] = buffered HP-β-CD solutions, pH = 5.5, 37 °C
# [10] = buffered HP-β-CD solutions, pH = 7.0, 25 °C
# [11] = buffered HP-β-CD solutions, pH = 7.0, 37 °C
Compound,"solubility [1, 4]","solubility [1, 5]","solubility [1, 6]","solubility [1, 7]",logP at 2 days [2],"Solubility ratio in 1-octanol and water, C oc/C w ([1]; 25 °C)","Solubility ratio in 1-octanol saturated with water and water saturated with 1-octanol, C ocw/C woc ([1]; 25 °C)","Correlation parameter a (Eq. 2, Cs = a + b·CCD) [3, 8]","Correlation parameter b (Eq. 2, Cs = a + b·CCD) [3, 8]","Correlation parameter a (Eq. 2, Cs = a + b·CCD) [3, 9]","Correlation parameter b (Eq. 2, Cs = a + b·CCD) [3, 9]","Correlation parameter a (Eq. 2, Cs = a + b·CCD) [3, 10]","Correlation parameter b (Eq. 2, Cs = a + b·CCD) [3, 10]","Correlation parameter a (Eq. 2, Cs = a + b·CCD) [3, 11]","Correlation parameter b (Eq. 2, Cs = a + b·CCD) [3, 11]","Stability constant K s of HP-β-CD complex ([3]; pH = 5.5, 25 °C)","Stability constant K s of HP-β-CD complex ([3]; pH = 5.5, 37 °C)","Stability constant K s of HP-β-CD complex ([3]; pH = 7, 25 °C)","Stability constant K s of HP-β-CD complex ([3]; pH = 7, 37 °C)",Type of solubility diagram (solubility versus cyclodextrin concentration) ([3]; buffered HP-β-CD solutions)
"Nc1nc2c(ncn2COCCO)c(=O)[nH]1 [Compound 1, 9-[(2-hydroxyethoxy)methyl] guanine, reference compound]",8.07 mM,7.44 mM,16.2 mM,19.7 mM,-1.44,–,–,–,–,–,–,–,–,–,–,–,–,–,–,–
"Nc1nc2c(nc(Br)n2COCCO)c(=O)[nH]1 [Compound 2, 8-bromo-9-[(2-hydroxyethoxy)methyl] guanine]",1.03 mM,0.859 mM,1.9 mM,2.49 mM,-0.264,0.430,0.802,–,–,–,–,–,–,–,–,–,–,–,–,–
"Nc1nc(O)c2ncn(COC(CO)CO)c2n1 [Compound 3, 9-[(1,3-dihydroxy-2-propoxy)methyl]guanine, reference compound]",12.3 mM,11 mM,21.8 mM,22.9 mM,-1.77,–,–,–,–,–,–,–,–,–,–,–,–,–,–,–
"O=c1c2ncn(COCCO)c2nc2[nH]ccn12 [Compound 4, 3,9-dihydro-3-[(2-hydroxyethoxy)methyl]-9-oxo-5H-imidazol[1,2-a]purine]",3.07 mM,2.72 mM,5.91 mM,6.75 mM,-0.86,0.046,0.157,2.64 × 10^−3,1.98 × 10^−2,5.15 × 10^−3,2.72 × 10^−2,2.48 × 10^−3,2.05 × 10^−2,4.79 × 10^−3,2.56 × 10^−2,8.0 (±1) dm·mol^−1,6.0 (±1) dm·mol^−1,8.0 (±1) dm·mol^−1,6.0 (±1) dm·mol^−1,–
Cc1cn2c(=O)c3ncn(COCCO)c3nc2[nH]1 [Compound 5],18.7 mM,13.1 mM,26.6 mM,32.4 mM,-0.688,0.173,0.274,–,–,–,–,–,–,–,–,–,–,–,–,–
Cc1cn2c(=O)c3nc(Br)n(COCCO)c3nc2[nH]1 [Compound 6],2.11 mM,1.05 mM,2.36 mM,2.59 mM,-0.108,0.108,0.816,1.18 × 10^−3,2.66 × 10^−2,2.35 × 10^−3,5.94 × 10^−2,1.03 × 10^−3,2.57 × 10^−2,2.01 × 10^−3,3.23 × 10^−2,27 (±2) dm·mol^−1,26 (±2) dm·mol^−1,26 (±2) dm·mol^−1,17 (±1) dm·mol^−1,–
CC(C)(C)c1cn2c(=O)c3ncn(COCCO)c3nc2[nH]1 [Compound 7],3.08 mM,3.78 mM,20.4 mM,31.9 mM,0.616,5.16,2.62,–,–,–,–,–,–,–,–,–,–,–,–,An type of solubility diagram
O=c1c2ncn(COCCO)c2nc2[nH]c(-c3ccccc3)cn12 [Compound 8],0.238 mM,0.334 mM,0.517 mM,0.728 mM,0.545,7.48,4.76,1.86 × 10^−4,2.22 × 10^−2,3.27 × 10^−4,3.57 × 10^−2,2.50 × 10^−4,2.60 × 10^−2,3.36 × 10^−4,3.60 × 10^−2,122 (±2) dm·mol^−1,113 (±10),107 (±8),105 (±6) dm·mol^−1,–
O=c1c2ncn(COCCO)c2nc2[nH]c(-c3ccc(Br)cc3)cn12 [Compound 10],0.364 mM,0.412 mM,0.898 mM,1.28 mM,0.549,2.14,1.65,–,–,–,–,–,–,–,–,–,–,–,–,–
